Earlier results in paper PMC10640708 (ACS chemical biology, 2018).

Target: calcium sensing receptor (CaSR)
Details: read-out: EC50 of CaSR activation; Ca2+ alone

EC50: ~4 mM
SMILES: [Ca+2] [Ca^2+]
